Active and inactive are the calls of the source. The rule behind the calls is not given here.
Experiments:
Type in all cases: cell-based
[1] = molecular target: T1, Sodium/nucleoside cotransporter 2 (Mus musculus) (UniProt O88627); test: Transport through CNT2 in mouse hepatocytes by oil filtration assay pre-incubated with 20 ng/mL rotenone for 15 mins and 2 mM 2-deoxyglucose for 10 mins at 37 degC in Kreb-henseleit buffer; conditions: Hepatocyte
T1 sequence (whole entry): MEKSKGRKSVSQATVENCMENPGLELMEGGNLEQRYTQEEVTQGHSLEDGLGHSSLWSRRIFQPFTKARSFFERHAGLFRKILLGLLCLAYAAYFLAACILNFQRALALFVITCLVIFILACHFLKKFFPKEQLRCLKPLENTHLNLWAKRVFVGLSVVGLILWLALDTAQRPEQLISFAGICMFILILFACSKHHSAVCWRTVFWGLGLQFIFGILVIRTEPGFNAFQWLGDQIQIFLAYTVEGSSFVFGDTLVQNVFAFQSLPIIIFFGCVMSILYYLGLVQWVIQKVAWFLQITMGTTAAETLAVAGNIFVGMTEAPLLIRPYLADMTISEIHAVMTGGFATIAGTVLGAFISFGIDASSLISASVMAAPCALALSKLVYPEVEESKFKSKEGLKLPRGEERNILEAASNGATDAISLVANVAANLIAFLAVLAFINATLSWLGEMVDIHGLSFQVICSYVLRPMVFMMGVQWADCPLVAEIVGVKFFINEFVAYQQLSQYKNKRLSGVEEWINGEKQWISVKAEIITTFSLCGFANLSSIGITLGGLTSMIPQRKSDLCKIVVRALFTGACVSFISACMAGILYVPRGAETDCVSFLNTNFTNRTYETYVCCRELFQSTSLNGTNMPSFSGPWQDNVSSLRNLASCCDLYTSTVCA

[2] = molecular target: T2, Equilibrative nucleoside transporter 1 (Rattus norvegicus) (UniProt O54698); test: Transport through ENT1 in rat hepatocytes by oil filtration assay in presence of sodium ions in Kreb-henseleit buffer; conditions: Hepatocyte
T2 sequence (whole entry): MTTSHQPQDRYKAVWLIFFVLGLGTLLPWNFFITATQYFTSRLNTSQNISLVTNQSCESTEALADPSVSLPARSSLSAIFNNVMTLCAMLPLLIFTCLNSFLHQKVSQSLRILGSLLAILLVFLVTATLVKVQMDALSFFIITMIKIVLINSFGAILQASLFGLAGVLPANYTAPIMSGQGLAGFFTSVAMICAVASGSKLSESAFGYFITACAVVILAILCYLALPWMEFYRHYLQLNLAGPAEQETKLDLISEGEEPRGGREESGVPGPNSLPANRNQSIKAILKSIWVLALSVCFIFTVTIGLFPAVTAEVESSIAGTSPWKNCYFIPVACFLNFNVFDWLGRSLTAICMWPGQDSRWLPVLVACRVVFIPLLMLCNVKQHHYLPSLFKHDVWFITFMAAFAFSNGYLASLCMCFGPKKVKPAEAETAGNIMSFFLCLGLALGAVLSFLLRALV

[3] = tested on: Hepatocyte; test: Transport through CNT1 in mouse hepatocytes by oil filtration assay in presence of sodium ions in Kreb-henseleit buffer
[4] = molecular target: T3, Sodium/nucleoside cotransporter 2 (Rattus norvegicus) (UniProt Q62773); test: Transport through CNT2 in rat hepatocytes by oil filtration assay pre-incubated with 20 ng/mL rotenone for 15 mins and 2 mM 2-deoxyglucose for 10 mins at 37 degC in presence of sodium ions in Kreb-henseleit buffer containing 100 nM NBMPR; conditions: Hepatocyte
T3 sequence (whole entry): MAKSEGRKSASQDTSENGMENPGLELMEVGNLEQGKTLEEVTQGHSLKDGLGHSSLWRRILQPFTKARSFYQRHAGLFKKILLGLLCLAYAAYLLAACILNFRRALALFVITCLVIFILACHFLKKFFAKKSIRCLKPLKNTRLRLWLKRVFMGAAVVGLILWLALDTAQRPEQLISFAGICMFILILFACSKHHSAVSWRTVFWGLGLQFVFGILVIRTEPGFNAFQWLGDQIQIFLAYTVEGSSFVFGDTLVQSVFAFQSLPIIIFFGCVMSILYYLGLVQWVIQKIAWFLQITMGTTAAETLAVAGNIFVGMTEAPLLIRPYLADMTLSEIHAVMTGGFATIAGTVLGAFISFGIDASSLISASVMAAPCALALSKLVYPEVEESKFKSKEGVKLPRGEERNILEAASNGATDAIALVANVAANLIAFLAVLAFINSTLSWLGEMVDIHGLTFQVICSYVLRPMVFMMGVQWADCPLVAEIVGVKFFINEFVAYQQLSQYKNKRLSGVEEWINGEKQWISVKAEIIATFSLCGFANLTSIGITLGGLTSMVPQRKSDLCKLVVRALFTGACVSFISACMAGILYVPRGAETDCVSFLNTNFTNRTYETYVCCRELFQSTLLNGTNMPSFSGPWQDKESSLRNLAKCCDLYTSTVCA

[5] = molecular target: T1, Sodium/nucleoside cotransporter 2 (Mus musculus); test: Transport through CNT2 in mouse hepatocytes by oil filtration assay pre-incubated with 20 ng/mL rotenone for 15 mins and 2 mM 2-deoxyglucose for 10 mins at 37 degC in presence of sodium ions in Kreb-henseleit buffer containing 100 nM NBMPR; conditions: Hepatocyte
[6] = molecular target: T3, Sodium/nucleoside cotransporter 2 (Rattus norvegicus); test: Transport through CNT2 in rat hepatocytes by oil filtration assay pre-incubated with 20 ng/mL rotenone for 15 mins and 2 mM 2-deoxyglucose for 10 mins at 37 degC in Kreb-henseleit buffer; conditions: Hepatocyte
[7] = molecular target: T1, Sodium/nucleoside cotransporter 2 (Mus musculus); test: Transport through CNT2 in mouse hepatocytes by oil filtration assay in presence of sodium ions in Kreb-henseleit buffer; conditions: Hepatocyte

Compound	Activity [1]	Activity [2]	Activity [3]	Activity [4]	Activity [5]	Activity [6]	Activity [7]
NC(=O)c1ncn([C@@H]2O[C@H](CO)[C@@H](O)[C@H]2O)n1	Active	inactive	inactive	Active	Active	Active	inactive
Nc1ncnc2c1ncn2[C@@H]1O[C@H](CO)[C@@H](O)[C@H]1O		inactive	inactive				inactive
